Several values for one entry are separate records, joined by “and”; a condition that tells them apart may be missing. Equal values may be shown once. Read-outs that look alike come from different tables or passages of the source.

Series [1] addresses T1, HpaBC (Escherichia coli, UniProt Q57160).
T1 construct: expressed in transfected cells; host or cells: E. coli strain harboring pZE-HpaBC
As to the kind of experiment: Whole-cell biocatalysis with E. coli cells over-expressing HpaBC. Type of series: cell-based. The conditions noted are these: for whole cell bioconversion of substrate into hydroxylated product: 500 mg/L substrate, about 3.3 g/L DCW, in 3 h. The method, then:
The E. coli strain harboring pZE-HpaBC was first cultivated in 50 ml LB liquid medium at 37° C. till OD600 values reached 0.6. Then the cells were transferred to 30° C. and induced with 0.5 mM IPTG for additional 6 hours. After that, cells were harvested, re-suspended in 15 ml M9Y medium (0D600=9.6), and incubated in a rotary shaker at 300 rpm. […] When the substrate concentrations fell below 0.5 g/L, additional 1 g/L substrates were supplemented. […] Samples were taken every few hours and analyzed by HPLC.
Whole-cell biocatalysis is an efficient and economical way to scale up enzyme-catalyzed reactions.
T1 sequence (Q57160 whole entry): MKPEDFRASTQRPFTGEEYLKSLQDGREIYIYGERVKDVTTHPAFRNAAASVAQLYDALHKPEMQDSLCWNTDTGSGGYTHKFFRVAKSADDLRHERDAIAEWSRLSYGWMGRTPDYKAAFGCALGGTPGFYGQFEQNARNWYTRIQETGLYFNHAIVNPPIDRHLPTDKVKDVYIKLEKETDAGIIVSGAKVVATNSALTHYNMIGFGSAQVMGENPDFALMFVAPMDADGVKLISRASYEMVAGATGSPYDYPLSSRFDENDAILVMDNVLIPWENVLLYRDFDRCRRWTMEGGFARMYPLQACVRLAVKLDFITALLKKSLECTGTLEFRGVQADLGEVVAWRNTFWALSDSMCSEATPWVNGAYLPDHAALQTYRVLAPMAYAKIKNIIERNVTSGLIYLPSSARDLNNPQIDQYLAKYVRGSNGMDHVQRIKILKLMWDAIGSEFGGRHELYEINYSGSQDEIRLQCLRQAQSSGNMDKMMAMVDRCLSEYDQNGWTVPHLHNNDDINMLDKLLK

The target in series [2] is T2, HpaBC (Escherichia coli, UniProt Q57160).
T2 sequence (Q57160 2-520): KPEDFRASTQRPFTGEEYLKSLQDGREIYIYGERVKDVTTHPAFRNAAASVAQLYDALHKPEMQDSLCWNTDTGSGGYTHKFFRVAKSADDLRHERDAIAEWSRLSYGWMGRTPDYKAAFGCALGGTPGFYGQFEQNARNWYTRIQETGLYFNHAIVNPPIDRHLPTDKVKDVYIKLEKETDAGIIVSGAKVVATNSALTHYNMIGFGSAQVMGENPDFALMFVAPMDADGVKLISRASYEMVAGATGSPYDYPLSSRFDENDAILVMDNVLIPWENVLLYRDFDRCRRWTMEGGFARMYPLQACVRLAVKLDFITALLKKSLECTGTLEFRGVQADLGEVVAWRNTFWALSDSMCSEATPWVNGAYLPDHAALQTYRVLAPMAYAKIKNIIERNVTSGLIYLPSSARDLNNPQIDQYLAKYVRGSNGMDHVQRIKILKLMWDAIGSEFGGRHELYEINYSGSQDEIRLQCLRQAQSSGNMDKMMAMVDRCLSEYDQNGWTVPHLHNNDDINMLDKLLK
Type of series: biochemical. The note with it: for kcat: kcat=Vmax/[E]. The method, then: The E. coli strain was transformed with pZE-His7HpaB and pZE-His7HpaC separately. The fresh transformants were pre-inoculated in LB medium containing 100 μg/ml ampicillin and grown at 37° C. aerobically overnight. In the following day, the pre-inoculums were transferred into 50 ml of fresh LB medium at a ratio of 1:100. The cultures were cultivated at 37° C. till the OD600 values reached about 0.6 and then induced by 0.5 mM IPTG. […] The BCA kit (Pierce Chemicals) was used to estimate protein concentrations. […] The HpaBC enzyme assays were carried out according to the protocol described by Louie et al. with minor modifications (Louie et al., 2003. Biochemistry (Mosc) 42(24):7509-17). The 1 ml reaction system contains KPi Buffer (20 mM, pH=7.0), FAD (10 μM), NADH (1 mM), HpaB (0.5 μM), HpaC (0.5 μM), substrates (from 10 to 1000 μM). […] The reaction rates were calculated according to the product formation and substrate consumption, which were measured by HPLC. Apparent kinetic parameters were determined by non-linear regression of the Michaelis-Menten equation using OriginPro8™.
We further investigated and compared the kinetic parameters of HpaBC towards its native substrate 4HPA and the 3 non-native substrates. To do these, a multi-histidine tag was fused to the N-terminus of HpaB and HpaC, which were subsequently over-expressed and purified from E. coli. The enzyme complex was reconsituted in vitro for enzyme assays (FIG. 5).

Series [3] has as its target T1, HpaBC. The experiment in a line: HpaBC substrates screening: feeding of E. coli strain over-expressing HpaBC. The class given is cell-based. The note with it: 200 mg/L substrate, additional 10 hour incubation. The method, then:
The E. coli strain harboring pZE-HpaBC was pre-inoculated into LB liquid medium containing ampicillin (100 μg/ml) and grown overnight at 37° C. Then 200 μl of the inoculum was transferred into 20 ml of fresh M9Y medium. The E. coli cells were grown at 37° C. till the OD600 values reached around 0.6 and then transferred to 30° C. and induced by 0.5 mM IPTG.
As the initial step towards examining the activity, we constructed a high-copy number plasmid co-expressing hpaB and hpaC (pZE-HpaBC) and introduced it into E. coli. The resulting strain was cultivated and induced with IPTG for enzyme expression for 3 hours, after which 200 mg/L of substrate was added into the cultures. After additional 10 hour incubation, we analyzed the cell-free broth by HPLC. […] We further used naringenin to explore the substrate tolerance limit of HpaBC. […] The three new peaks were collected from HPLC for mass spectrum analysis.

The target in series [4] is T1, HpaBC. The conditions noted are these: from p-coumaric acid; cited from earlier work.
Substrate in series [5]: O=c1ccc2ccc(O)cc2o1
As to the kind of experiment: purified protein, by the assay type. The note with it: other: apparent, HpaB 0.5 μM, HpaC 0.5 μM, pH 7.0, 30° C.

Substrate in series [6]: Oc1ccc(/C=C/c2cc(O)cc(O)c2)cc1
As to the kind of experiment: purified protein, by the assay type. The conditions noted are these: other: apparent, HpaB 0.5 μM, HpaC 0.5 μM, pH 7.0, 30° C.

Turning to `O=c1ccc2ccc(O)cc2o1` [Umbelliferone, umbelliferone], in series [1], the “whole cell bioconversion of substrate into hydroxylated product” value is on record as “completely converted”. Also, the “whole-cell conversion efficiency relative to resveratrol” value in series [1] (umbelliferone vs resveratrol) was “about 3 fold”. Besides, the kcat – broadly, the maximal rate divided by the concentration of active sites – in series [2] (apparent, pH 7.0, 30° C.) came out at 0.0667 s⁻¹. In addition, the “substrate consumption in culture (HPLC)” value in series [3] is recorded as “completely consumed”.

On to `O=C(O)/C=C/c1ccc(O)c(O)c1` [caffeic acid], for which, in series [4], the “caffeic acid production titer” value was 3.82 g/L and 21.2 mM.

On to `O=c1ccc2cc(O)c(O)cc2o1` (single isomer, unassigned) [esculetin], for which the maximum product titer in series [1] (end of 18 h, fed substrate, 1.5 mM ascorbic acid) is 2.7 g/L and 15.5 mM. In addition, the “highest hydroxylation rate (product formation)” value in series [1] (initial 2 h, 1.5 g/L initial substrate) came out at 298.1 μM/h/OD.

Regarding `O=C1C[C@@H](c2ccc(O)cc2)Oc2cc(O)cc(O)c21` [naringenin], the “activity of HpaBC towards substrate” value in series [2] (kinetic parameters not determined) was “low activity”. The “substrate consumption in culture (HPLC)” value in series [3] is listed as “majority of naringenin was left unconverted”.

Consider `Oc1ccc(/C=C/c2cc(O)cc(O)c2)cc1` [Resveratrol, 3,5,4′-trihydroxy-trans-stilbene], for which the “whole cell bioconversion of substrate into hydroxylated product” value in series [1] was “completely converted”. Besides, in series [2] (apparent, pH 7.0, 30° C.), the kcat was determined as 0.0933 s⁻¹. Further, in series [3], the “substrate consumption in culture (HPLC)” value is “completely consumed”.

Consider `O=C1C[C@@H](c2ccc(O)c(O)c2)Oc2cc(O)cc(O)c21` (single isomer, unassigned) [eriodictyol], for which the product generated in series [1] (150 mg/L naringenin fed, 10 h) was 16.7 mg/L and 58 μM.

Turning to `O=C(O)Cc1ccc(O)cc1` [4-HPA, 4-hydroxyphenylacetate, reference compound], the Km (usually the concentration of substrate that gives half-maximal velocity) in series [2] (apparent, HpaB 0.5 μM, HpaC 0.5 μM, pH 7.0, 30° C.) was 18.4 µM. Also, the kcat amounted to 1.08 ± 0.015 s⁻¹ in series [2] (apparent, pH 7.0, 30° C.) and 1.08 s⁻¹ in series [2] (apparent, pH 7.0, 30° C., listed as 4HPA).

B1: HpaBC (Escherichia coli) (protein)
chain: KPEDFRASTQRPFTGEEYLKSLQDGREIYIYGERVKDVTTHPAFRNAAASVAQLYDALHKPEMQDSLCWNTDTGSGGYTHKFFRVAKSADDLRHERDAIAEWSRLSYGWMGRTPDYKAAFGCALGGTPGFYGQFEQNARNWYTRIQETGLYFNHAIVNPPIDRHLPTDKVKDVYIKLEKETDAGIIVSGAKVVATNSALTHYNMIGFGSAQVMGENPDFALMFVAPMDADGVKLISRASYEMVAGATGSPYDYPLSSRFDENDAILVMDNVLIPWENVLLYRDFDRCRRWTMEGGFARMYPLQACVRLAVKLDFITALLKKSLECTGTLEFRGVQADLGEVVAWRNTFWALSDSMCSEATPWVNGAYLPDHAALQTYRVLAPMAYAKIKNIIERNVTSGLIYLPSSARDLNNPQIDQYLAKYVRGSNGMDHVQRIKILKLMWDAIGSEFGGRHELYEINYSGSQDEIRLQCLRQAQSSGNMDKMMAMVDRCLSEYDQNGWTVPHLHNNDDINMLDKLLK
For B1, in series [5], the Km was 262.2 µM; the kcat is 0.0667 s⁻¹; the kcat/Km (in general, the second-order rate constant that governs catalysis at low substrate concentration) amounted to 254 M⁻¹ s⁻¹. Further, in series [6], the Km is 145.1 µM, the catalytic constant (kcat) came to 0.0933 s⁻¹ and the kcat/Km is 643 M⁻¹ s⁻¹.

The values are drawn from patent US10036047B2, “Methods for hydroxylating phenylpropanoids” (University of Georgia Research Foundation, Inc., priority 2013, dated 2018).
